Experimental data published in patent US10591461B2, “Method of drug design and optimisation utilizing stereochemical mimicry” (The Trustees of the University of Pennsylvania, priority 2016, dated 2020).
Ends that are not written are not given here.

How the values were obtained:
neuro-2a cells = assay: Confocal microscopy imaging of neuronal cells (neurite outgrowth, qualitative); type: cell-based, Mouse; details: for number of projections (increase from no treatment): confocal images, FIG. 7
Procedure: (§1) Once the three compounds were synthesized the neurite outgrowth assay was used in order to determine the effectiveness of the aza-proline derivatives in comparison with the Glyx-13. Mouse neuroblastoma cells (Neuro-2a cells) were used in order to measure the increase in neurite growth between untreated cells and those treated with the test compounds. A plate reader assay was used where 9,000 cells/cm^2 were treated with the compounds at 0.01, 0.10, and 1.00 μM concentrations for 48 hours. Several controls were used as well, including wells with no cell and compound, cells with no compound (just water), and wells with no cells and water. After treatment with the compounds, the cells were washed in DPBS buffer and treated with cell viability indicator and a membrane stain for 20 minutes before being washed again and treated with a background suppression dye. The plate reader assay was inconclusive for some of the concentrations of the compounds, but the 0.10 μM data is promising. (FIG. 6)

[1] = tested on: Mouse neuroblastoma cells (Neuro-2a cells); type: cell-based; details: 0.10 μM, 48 hours, vs untreated cells; FIG. 6; preliminary data
Procedure: as §1

| Molecule | number of projections (increase from no treatment) (neuro-2a cells) | effectiveness compared with control compound Glyx-13 (neuronal projections and dendrite length) (neuro-2a cells; confocal microscope data) | size of the neurites (membrane stain) [1] |
| --- | --- | --- | --- |
| C[C@@H](O)[C@H](N)C(=O)N1CCCN1C(=O)N1CCC[C@H]1C(=O)N[C@H](C(N)=O)[C@@H](C)O [Glyx-1] | even more noticeable | – | – |
| C[C@@H](O)[C@H](N)C(=O)N1CCC[C@H]1C(=O)N1CCCN1C(=O)N[C@H](C(N)=O)[C@@H](C)O [Glyx-2] | even more noticeable | significantly more effective | significant increase |
| Thr-Pro-Pro-Thr-NH2 (TPPT-NH2) [Glyx-13, tetrapeptide, parent and control compound, NMDA receptor glycine-site partial agonist, reference compound] | significant increase | – | – |
